In patent US12473262B2, “Aryl hydrocarbon receptor activators” (Oregon State University, priority 2019, dated 2025):
Like-named read-outs stand apart in the source and are kept apart here.

Columns and labels:
[1] = biological target: aryl hydrocarbon receptor (AhR) (Mus musculus (Mouse), UniProt P30561); assay: AhR ligand screening: AhRE-luciferase reporter in transfected Hepa1 cells; type: cell-based; settings: for Fold @ 1 nM: fold change of luciferase expression at 1 nM test compound relative to vehicle (0.1% DMSO); for Fold @ 100 nM: fold change of luciferase expression at 100 nM test compound relative to vehicle (0.1% DMSO); for Fold @ 10 uM: fold change of luciferase expression at 10 uM test compound relative to vehicle (0.1% DMSO); for Fold relative to benchmark @ 100 nM: luciferase expression at 100 nM test compound relative to 100 nM benchmark compound 11-cl-BBQ
Sequence of aryl hydrocarbon receptor (AhR) (P30561 10-805): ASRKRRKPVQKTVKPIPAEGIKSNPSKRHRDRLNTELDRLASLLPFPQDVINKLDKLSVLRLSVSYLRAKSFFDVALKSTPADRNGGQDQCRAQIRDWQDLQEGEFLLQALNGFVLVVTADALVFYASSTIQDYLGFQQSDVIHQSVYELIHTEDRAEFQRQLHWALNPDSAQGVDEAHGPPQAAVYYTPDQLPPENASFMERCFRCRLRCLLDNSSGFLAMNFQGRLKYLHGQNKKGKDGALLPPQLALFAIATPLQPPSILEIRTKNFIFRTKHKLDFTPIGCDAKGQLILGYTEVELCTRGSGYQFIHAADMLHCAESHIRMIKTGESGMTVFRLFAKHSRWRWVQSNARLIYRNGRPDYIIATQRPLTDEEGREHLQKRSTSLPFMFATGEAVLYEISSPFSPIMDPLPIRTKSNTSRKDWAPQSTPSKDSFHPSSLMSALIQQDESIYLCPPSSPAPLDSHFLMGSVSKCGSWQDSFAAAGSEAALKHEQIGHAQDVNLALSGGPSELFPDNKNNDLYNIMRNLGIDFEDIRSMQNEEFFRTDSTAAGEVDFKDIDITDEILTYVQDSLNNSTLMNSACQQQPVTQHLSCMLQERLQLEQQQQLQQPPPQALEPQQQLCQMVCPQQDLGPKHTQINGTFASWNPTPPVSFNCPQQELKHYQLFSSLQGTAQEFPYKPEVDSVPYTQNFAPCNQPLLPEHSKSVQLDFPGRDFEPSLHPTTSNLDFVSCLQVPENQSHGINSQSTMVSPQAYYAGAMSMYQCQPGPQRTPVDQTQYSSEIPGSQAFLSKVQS
Sequence of aryl hydrocarbon receptor (AhR) (P53762 whole entry partner): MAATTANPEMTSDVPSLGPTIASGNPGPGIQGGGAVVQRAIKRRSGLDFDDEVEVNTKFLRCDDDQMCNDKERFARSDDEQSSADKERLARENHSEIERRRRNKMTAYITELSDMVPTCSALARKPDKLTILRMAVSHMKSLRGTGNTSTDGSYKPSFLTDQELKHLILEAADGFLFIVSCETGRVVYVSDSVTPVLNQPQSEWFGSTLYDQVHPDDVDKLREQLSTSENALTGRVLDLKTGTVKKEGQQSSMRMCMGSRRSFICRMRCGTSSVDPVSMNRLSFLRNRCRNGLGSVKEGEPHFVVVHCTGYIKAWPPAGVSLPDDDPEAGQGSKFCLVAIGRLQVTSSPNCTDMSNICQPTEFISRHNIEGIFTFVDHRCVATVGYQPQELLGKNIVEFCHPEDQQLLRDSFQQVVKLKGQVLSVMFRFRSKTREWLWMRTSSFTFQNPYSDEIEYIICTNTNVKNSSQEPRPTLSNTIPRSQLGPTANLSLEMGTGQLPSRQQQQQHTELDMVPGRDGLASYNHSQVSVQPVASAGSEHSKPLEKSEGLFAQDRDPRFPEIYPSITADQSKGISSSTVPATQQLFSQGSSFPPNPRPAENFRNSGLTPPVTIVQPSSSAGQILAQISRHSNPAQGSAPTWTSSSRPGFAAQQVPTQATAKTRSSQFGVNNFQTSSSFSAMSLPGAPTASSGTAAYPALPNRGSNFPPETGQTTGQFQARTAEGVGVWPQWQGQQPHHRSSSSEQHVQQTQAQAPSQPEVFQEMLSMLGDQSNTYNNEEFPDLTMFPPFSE
Procedure, shortened: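 Values are fold luciferase induction relative to vehicle (0.1% DMSO), read by luminometry of lysates from Hepa1 cells carrying an AhRE-driven luciferase reporter. Cells were seeded at 1×10^4 per well, grown overnight and treated with compound before lysis.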

CYP-2B6 = CYP-2B6 (Homo sapiens (Human), UniProt P20813); assay: CYP panel profile: P450 inhibition, CYP-2B6; type: in vitro ADME; settings: human liver microsomes
Sequence of CYP-2B6 (P20813 whole entry): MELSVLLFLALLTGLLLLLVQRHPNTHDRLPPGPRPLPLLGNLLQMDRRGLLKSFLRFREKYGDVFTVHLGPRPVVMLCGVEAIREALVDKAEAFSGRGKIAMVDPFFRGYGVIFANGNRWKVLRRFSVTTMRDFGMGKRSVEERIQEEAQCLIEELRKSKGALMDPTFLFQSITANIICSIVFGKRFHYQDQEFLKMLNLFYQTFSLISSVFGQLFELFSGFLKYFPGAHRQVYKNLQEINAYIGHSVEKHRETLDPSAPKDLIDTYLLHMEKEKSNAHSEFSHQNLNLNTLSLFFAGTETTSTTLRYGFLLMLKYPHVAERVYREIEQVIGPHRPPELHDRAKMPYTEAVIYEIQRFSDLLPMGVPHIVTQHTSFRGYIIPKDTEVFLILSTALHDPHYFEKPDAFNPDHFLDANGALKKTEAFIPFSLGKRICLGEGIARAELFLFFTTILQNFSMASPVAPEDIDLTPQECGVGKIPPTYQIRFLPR
Description: (§1) 5. CYP Panel Profile: P450 Inhibition
(§2) From 10 mM stock solutions of test compounds, a dilution plate was prepared diluting serially starting from 5 mM up to 2 μM in Acetonitrile/DMSO or Methanol/DMSO Human liver Microsomes were added at required concentration as per specific CYP isoform in a deep well assay plate (1A2, 2C9, 2D6, 2B6, 2C8, 2C19, and 3A4). Compounds were spiked in all wells from dilution plate at final concentrations starting from 50 μM up to 0.02 μM, except for positive and negative control. Specific substrate were added to all wells and reactions were pre-incubated for 10 min. To start reactions, NADPH was added to all wells at 1 mM final concentration. Assay plate was mixed by vortexing and incubated at 37° C. for […] for 3A4.20 min for (1A2, 2C9, 2B6, 2C8, 2D6) and […] for 2C19. A quencher with chilled acetonitrile suitable internal standard was added. Samples were centrifuged and supernatants were collected and subjected to LC-MS/MS analysis for determination.

CYP-2C8 = CYP-2C8 (Homo sapiens (Human), UniProt P10632); assay: CYP panel profile: P450 inhibition, CYP-2C8; type: in vitro ADME; settings: human liver microsomes
Sequence of CYP-2C8 (P10632 whole entry): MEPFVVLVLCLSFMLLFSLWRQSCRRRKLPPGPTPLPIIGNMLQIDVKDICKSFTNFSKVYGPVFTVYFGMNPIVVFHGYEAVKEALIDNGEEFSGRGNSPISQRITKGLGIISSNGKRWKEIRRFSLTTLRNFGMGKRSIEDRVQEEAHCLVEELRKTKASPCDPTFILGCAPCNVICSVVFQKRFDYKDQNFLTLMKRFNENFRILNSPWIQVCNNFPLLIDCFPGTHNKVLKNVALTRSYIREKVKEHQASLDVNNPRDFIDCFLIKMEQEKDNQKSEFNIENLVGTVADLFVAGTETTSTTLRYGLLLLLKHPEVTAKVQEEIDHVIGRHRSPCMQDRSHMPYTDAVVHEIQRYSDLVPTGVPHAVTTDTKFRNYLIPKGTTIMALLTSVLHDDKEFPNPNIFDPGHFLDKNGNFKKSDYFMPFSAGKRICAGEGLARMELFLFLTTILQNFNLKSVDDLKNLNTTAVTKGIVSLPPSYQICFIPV
Description: as §1, §2

CYP-3A4 = CYP-3A4 (Homo sapiens (Human), UniProt P08684); assay: CYP panel profile: P450 inhibition, CYP-3A4; type: in vitro ADME; settings: human liver microsomes
Description: as §1, §2

CYP-2C19 = CYP-2C19 (Homo sapiens (Human), UniProt P33261); assay: CYP panel profile: P450 inhibition, CYP-2C19; type: in vitro ADME; settings: human liver microsomes
Sequence of CYP-2C19 (P33261 whole entry): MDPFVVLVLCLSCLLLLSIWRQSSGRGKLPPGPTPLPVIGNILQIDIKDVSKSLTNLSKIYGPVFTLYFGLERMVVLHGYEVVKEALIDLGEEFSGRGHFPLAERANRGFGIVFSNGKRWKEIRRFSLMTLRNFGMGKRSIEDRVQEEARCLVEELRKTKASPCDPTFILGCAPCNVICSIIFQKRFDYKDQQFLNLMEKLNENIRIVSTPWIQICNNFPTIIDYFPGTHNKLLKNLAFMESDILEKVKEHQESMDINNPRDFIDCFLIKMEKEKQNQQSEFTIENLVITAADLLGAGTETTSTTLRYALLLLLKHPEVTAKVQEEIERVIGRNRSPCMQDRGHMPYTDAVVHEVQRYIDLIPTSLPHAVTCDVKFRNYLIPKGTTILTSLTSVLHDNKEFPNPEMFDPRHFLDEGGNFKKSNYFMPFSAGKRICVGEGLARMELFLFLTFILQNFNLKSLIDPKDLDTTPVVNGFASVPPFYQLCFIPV
Description: as §1, §2

CYP-2D6 = CYP-2D6 (Homo sapiens (Human), UniProt P10635); assay: CYP panel profile: P450 inhibition, CYP-2D6; type: in vitro ADME; settings: human liver microsomes
Sequence of CYP-2D6 (P10635 whole entry): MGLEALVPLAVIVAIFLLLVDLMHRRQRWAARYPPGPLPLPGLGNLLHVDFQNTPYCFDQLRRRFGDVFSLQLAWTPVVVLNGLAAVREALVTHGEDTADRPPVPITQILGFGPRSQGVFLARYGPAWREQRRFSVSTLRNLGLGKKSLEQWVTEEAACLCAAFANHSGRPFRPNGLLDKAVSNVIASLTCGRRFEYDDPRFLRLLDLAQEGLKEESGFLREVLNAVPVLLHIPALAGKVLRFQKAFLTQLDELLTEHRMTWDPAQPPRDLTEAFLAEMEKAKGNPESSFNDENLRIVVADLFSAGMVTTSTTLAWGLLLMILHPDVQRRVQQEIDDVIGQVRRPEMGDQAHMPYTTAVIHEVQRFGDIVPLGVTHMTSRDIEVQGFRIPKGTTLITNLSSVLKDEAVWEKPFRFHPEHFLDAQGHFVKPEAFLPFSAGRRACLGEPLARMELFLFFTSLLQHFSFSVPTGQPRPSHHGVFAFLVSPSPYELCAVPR
Description: as §1, §2

CYP-1A2 = CYP-1A2 (Homo sapiens (Human), UniProt P05177); assay: CYP panel profile: P450 inhibition, CYP-1A2; type: in vitro ADME
Sequence of CYP-1A2 (P05177 whole entry): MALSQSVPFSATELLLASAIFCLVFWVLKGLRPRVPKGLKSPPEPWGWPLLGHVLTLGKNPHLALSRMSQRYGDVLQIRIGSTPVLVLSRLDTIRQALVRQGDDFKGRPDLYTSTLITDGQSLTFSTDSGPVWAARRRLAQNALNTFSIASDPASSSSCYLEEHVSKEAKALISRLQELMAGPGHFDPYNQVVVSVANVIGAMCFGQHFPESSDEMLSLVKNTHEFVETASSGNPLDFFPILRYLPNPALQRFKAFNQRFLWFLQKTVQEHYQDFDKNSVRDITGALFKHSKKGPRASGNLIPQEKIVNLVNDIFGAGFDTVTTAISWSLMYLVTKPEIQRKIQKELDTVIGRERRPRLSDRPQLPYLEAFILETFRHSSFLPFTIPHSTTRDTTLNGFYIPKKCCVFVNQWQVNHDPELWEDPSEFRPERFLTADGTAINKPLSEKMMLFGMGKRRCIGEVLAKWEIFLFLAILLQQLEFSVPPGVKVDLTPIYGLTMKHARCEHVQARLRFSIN
Description: as §1, §2

CYP-2C9 = CYP-2C9 (Homo sapiens (Human), UniProt P11712); assay: CYP panel profile: P450 inhibition, CYP-2C9; type: in vitro ADME; settings: human liver microsomes
Sequence of CYP-2C9 (P11712 whole entry): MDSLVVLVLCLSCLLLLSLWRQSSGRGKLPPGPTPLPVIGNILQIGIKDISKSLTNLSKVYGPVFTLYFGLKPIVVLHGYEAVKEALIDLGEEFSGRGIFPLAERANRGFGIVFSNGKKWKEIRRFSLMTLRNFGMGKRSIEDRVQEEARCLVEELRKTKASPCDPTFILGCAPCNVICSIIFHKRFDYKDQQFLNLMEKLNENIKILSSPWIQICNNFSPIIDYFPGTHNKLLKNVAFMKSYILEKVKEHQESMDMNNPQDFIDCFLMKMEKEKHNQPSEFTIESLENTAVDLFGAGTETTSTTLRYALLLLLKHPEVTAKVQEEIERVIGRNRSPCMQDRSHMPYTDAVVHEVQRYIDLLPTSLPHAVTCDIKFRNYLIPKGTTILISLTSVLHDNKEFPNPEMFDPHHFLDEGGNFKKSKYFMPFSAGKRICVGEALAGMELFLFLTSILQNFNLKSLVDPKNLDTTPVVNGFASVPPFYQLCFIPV
Description: as §1, §2

[2] = human liver microsomes, read-out: CYP-1A2 IC50

| SMILES | Fold @ 1 nM [1] [fold] | Fold @ 100 nM [1] [fold] | Fold @ 10 uM [1] [fold] | Fold relative to benchmark @ 100 nM [1] [fold] | IC50 (CYP-2B6) [µM] | IC50 (CYP-2C8) [µM] | IC50 (CYP-3A4) [µM] | IC50 (CYP-2C19) [µM] | IC50 (CYP-2D6) [µM] | IC50 (CYP-1A2) [µM] | IC50 (CYP-2C9) [µM] | IC50 (CYP-1A2; [2]) [µM] |
| --- | --- | --- | --- | --- | --- | --- | --- | --- | --- | --- | --- | --- |
| Clc1ccc2c(c1)nc1n2Cc2cccc3cccc-1c23 [Compound 435, 6-chloro-3,10-diazapentacyclo[10.7.1.0^2,10.0^4,9.0^16,20]icosa-1(19),2,4(9),5,7,12,14,16(20),17-nonaene] | 4 | 28 | 60 | 0.7 | > 50 | 19.2 | 5.3 | > 50 | > 50 | < 0.02 | > 50 | – |
| O=C(c1ccc(F)c(F)c1)n1c(-c2ccc(-c3ccccc3)cc2)nc2cc(Cl)ccc21 [Compound 643] | 1 | 1 | 2 | 0.11 | > 50 | 12.3 | > 50 | > 50 | > 50 | – | 9.2 | 20.7 |
| COC(=O)c1ccc2c(c1)nc(-c1cccc3ccccc13)n2C(=O)c1ccc(F)c(F)c1 [Compound 848] | 1 | 1 | 5 | 0.04 | 16.7 | 3.5 | 13.7 | 1.1 | 2.9 | – | 6.3 | 2.6 |
| O=C(c1ccc(F)c(F)c1)n1c(-c2cccc3ccccc23)nc2cc(Cl)ccc21 [Compound 529] | 2 | 41 | 52 | 1.03 | 9.6 | 9.6 | 1.2 | 3.6 | > 50 | – | 3.5 | 0.6 |
| O=C(c1ccccc1)n1c(-c2cccc3ccccc23)nc2cc(OC(F)(F)F)ccc21 [Compound 703] | 1 | 22 | 23 | 0.85 | 12 | 4.2 | 10.3 | 0.5 | > 50 | – | 5.3 | 0.8 |
